{"source": "paper PMC10281575", "about": "“PfCRT mutations conferring piperaquine resistance in falciparum malaria shape the kinetics of quinoline drug binding and transport” (PLOS Pathogens, 2023)", "target": "T1, PfCRT^Dd2 (Plasmodium falciparum, UniProt Q8IBZ9, A220S/I356T/K76T/M74I/N326S/N75E/Q271E/R371I)", "T1 sequence (Q8IBZ9 1-424 M74I/N75E/K76T/A220S/Q271E/N326S/I356T/R371I)": "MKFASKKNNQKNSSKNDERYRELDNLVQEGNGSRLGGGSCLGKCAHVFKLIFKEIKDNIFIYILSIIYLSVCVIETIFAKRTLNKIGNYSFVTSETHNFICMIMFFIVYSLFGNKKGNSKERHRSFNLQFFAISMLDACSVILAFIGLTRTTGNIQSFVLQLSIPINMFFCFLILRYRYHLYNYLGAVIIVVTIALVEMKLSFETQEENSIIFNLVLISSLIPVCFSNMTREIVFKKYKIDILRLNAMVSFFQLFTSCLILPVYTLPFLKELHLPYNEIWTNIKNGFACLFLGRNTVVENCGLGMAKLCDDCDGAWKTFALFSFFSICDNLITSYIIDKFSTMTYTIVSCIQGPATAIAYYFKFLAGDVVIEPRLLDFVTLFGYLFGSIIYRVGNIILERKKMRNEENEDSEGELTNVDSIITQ", "assay": "Competition kinetics of drug transport (radiolabeled substrate plus cold inhibitor), PfCRT^Dd2-expressing oocytes", "assay_type": "cell-based", "parameters": "expressed in transfected cells; host or cells: Xenopus laevis oocytes injected with in vitro transcribed RNA (pSP64T)", "conditions": "single replicates", "procedure": "The experimental procedure and the data analysis were as described above.\nThe difference between the two models lies in the value of α, a parameter describing how much the affinity for the substrate changes when the inhibitor is already bound, and vice versa. […] The resulting Vmax,app values and the Vmax,app/KM,app ratios were plotted as a function of the inhibitor concentration (Fig 5A).\nDrug transport assays were performed as previously described. Briefly, measurements of radiolabeled drug uptake were made over 1 h, unless otherwise specified. […] Where specified, one or more unlabeled drugs were also present at the indicated concentrations. […] The uptake assays were terminated by removing the oocytes from the reaction medium and washing them three times with 2 mL of ice-cold ND96 buffer. Each oocyte was transferred to a separate scintillation vial and lysed by the addition of 200 μL of a 5% SDS solution. The radioactivity in the sample was measured using a liquid scintillation analyser Tri-Carb 4910 TR (PerkinElmer). Water-injected oocytes were analyzed in parallel as a negative control. The buffer from each condition was measured in duplicate in parallel to each experiment to transform counts per minute into pmol of drug. Drug uptake attributable to PfCRT was determined by subtracting the background uptake from water-injected oocytes from that of PfCRT-expressing oocytes. In all cases, at least three independent experiments were performed on oocytes from different frogs, and for each condition in an experiment, measurements were made from 10 oocytes per treatment.\nThe following equations were adopted from Segel (1993), and the reader is referred to that text for the assumptions made in the author’s approach in the derivation of each equation [31]. The concentration of substrate is denoted as [S1] and the concentration of the inhibiting substrate is denoted as [S2]. KS1 and KS2 are the dissociation constants for the respective substrate-protein complexes.\nAnalyses of the kinetic data were performed using SigmaPlot version 13.0 and Python. The drug competition models were globally fit to the kinetic data using the least-squares method and ranked according to their corrected Akaike information criterion difference (ΔAICC) and their Akaike weight, using Python. The two top-ranked models were compared using an F-test.\nThis factor reflects how much the affinity of the transporter for one drug changes when the other drug is already bound in the protein cavity. In the former model, α > 0 and α ≠ 1. In the latter model, it could be thought of as if α = 1. Because of this, discriminating between the two models also means determining the value of α. In Mixed-type (Partial) inhibition, the apparent maximal velocity (Vmax,app) is given by Eq 22, Vmax,app=Vmax(1+β[S2]/αKS2)/(1+[S2]/αKS2) (Eq 22)\nVmax,app is the maximal rate of substrate transport at a certain inhibitor concentration. The half-maximal inhibitory concentration is given by the term in the denominator different from [S2], which in this case is αKS2. This means that by plotting Vmax,app as a function of [S2], the value of αKS2 can be derived after fitting the curve to Eq 23.\nThe half-maximal inhibitory concentration derived from this hyperbolic equation is equal to KS2. By plotting Vmax,app/KM,app as a function of [S2], one can derive KS2 after fitting the curve to Eq 25. The value of α can then be calculated dividing αKS2 by KS2.", "note": "“And” between values parts separate entries of the source, which are not always exact repeats. Identical values can stand only once.", "data": [{"compound": "Clc1ccc2c(N3CCN(CCCN4CCN(c5ccnc6cc(Cl)ccc56)CC4)CC3)ccnc2c1", "note": "[PPQ, piperaquine]", "values": [{"measurement": "PfCRTDd2-mediated PPQ transport 10 µM PPQ", "setting": "0 µM CQ", "result": "7.56 pmol oocyte-1 h-1 and 10.37 pmol oocyte-1 h-1 and 9.52 pmol oocyte-1 h-1"}, {"measurement": "PfCRTDd2-mediated PPQ transport 10 µM PPQ", "setting": "25 µM CQ", "result": "5.90 pmol oocyte-1 h-1 and 7.56 pmol oocyte-1 h-1 and 12.12 pmol oocyte-1 h-1"}, {"measurement": "PfCRTDd2-mediated PPQ transport 10 µM PPQ", "setting": "50 µM CQ", "result": "9.48 pmol oocyte-1 h-1 and 7.04 pmol oocyte-1 h-1 and 8.33 pmol oocyte-1 h-1"}, {"measurement": "PfCRTDd2-mediated PPQ transport 10 µM PPQ", "setting": "125 µM CQ", "result": "5.75 pmol oocyte-1 h-1 and 8.54 pmol oocyte-1 h-1 and 9.92 pmol oocyte-1 h-1"}, {"measurement": "PfCRTDd2-mediated PPQ transport 10 µM PPQ", "setting": "200 µM CQ", "result": "6.96 pmol oocyte-1 h-1 and 8.23 pmol oocyte-1 h-1 and 6.73 pmol oocyte-1 h-1"}, {"measurement": "PfCRTDd2-mediated PPQ transport 10 µM PPQ", "setting": "400 µM CQ", "result": "6.34 pmol oocyte-1 h-1 and 7.80 pmol oocyte-1 h-1 and 6.93 pmol oocyte-1 h-1"}, {"measurement": "PfCRTDd2-mediated PPQ transport 50 µM PPQ", "setting": "0 µM CQ", "result": "28.14 pmol oocyte-1 h-1 and 21.87 pmol oocyte-1 h-1 and 89.78 pmol oocyte-1 h-1 and 46.28 pmol oocyte-1 h-1 and 30.01 pmol oocyte-1 h-1 and 33.33 pmol oocyte-1 h-1"}, {"measurement": "PfCRTDd2-mediated PPQ transport 50 µM PPQ", "setting": "25 µM CQ", "result": "38.92 pmol oocyte-1 h-1 and 37.28 pmol oocyte-1 h-1 and 39.83 pmol oocyte-1 h-1"}, {"measurement": "PfCRTDd2-mediated PPQ transport 50 µM PPQ", "setting": "50 µM CQ", "result": "39.65 pmol oocyte-1 h-1 and 31.99 pmol oocyte-1 h-1 and 26.06 pmol oocyte-1 h-1"}, {"measurement": "PfCRTDd2-mediated PPQ transport 50 µM PPQ", "setting": "125 µM CQ", "result": "26.33 pmol oocyte-1 h-1 and 27.41 pmol oocyte-1 h-1 and 34.41 pmol oocyte-1 h-1"}, {"measurement": "PfCRTDd2-mediated PPQ transport 50 µM PPQ", "setting": "200 µM CQ", "result": "26.27 pmol oocyte-1 h-1 and 27.81 pmol oocyte-1 h-1 and 32.81 pmol oocyte-1 h-1"}, {"measurement": "PfCRTDd2-mediated PPQ transport 50 µM PPQ", "setting": "400 µM CQ", "result": "19.16 pmol oocyte-1 h-1 and 25.87 pmol oocyte-1 h-1 and 24.41 pmol oocyte-1 h-1"}, {"measurement": "PfCRTDd2-mediated PPQ transport 100 µM PPQ", "setting": "0 µM CQ", "result": "59.97 pmol oocyte-1 h-1 and 33.72 pmol oocyte-1 h-1 and 64.52 pmol oocyte-1 h-1"}, {"measurement": "PfCRTDd2-mediated PPQ transport 100 µM PPQ", "setting": "25 µM CQ", "result": "49.79 pmol oocyte-1 h-1 and 57.28 pmol oocyte-1 h-1 and 48.06 pmol oocyte-1 h-1"}, {"measurement": "PfCRTDd2-mediated PPQ transport 100 µM PPQ", "setting": "50 µM CQ", "result": "52.12 pmol oocyte-1 h-1 and 55.31 pmol oocyte-1 h-1 and 42.70 pmol oocyte-1 h-1"}, {"measurement": "PfCRTDd2-mediated PPQ transport 100 µM PPQ", "setting": "125 µM CQ", "result": "58.54 pmol oocyte-1 h-1 and 43.73 pmol oocyte-1 h-1 and 42.26 pmol oocyte-1 h-1"}, {"measurement": "PfCRTDd2-mediated PPQ transport 100 µM PPQ", "setting": "200 µM CQ", "result": "53.47 pmol oocyte-1 h-1 and 42.58 pmol oocyte-1 h-1 and 43.06 pmol oocyte-1 h-1"}, {"measurement": "PfCRTDd2-mediated PPQ transport 100 µM PPQ", "setting": "400 µM CQ", "result": "44.21 pmol oocyte-1 h-1 and 36.58 pmol oocyte-1 h-1 and 41.48 pmol oocyte-1 h-1"}, {"measurement": "PfCRTDd2-mediated PPQ transport 200 µM PPQ", "setting": "0 µM CQ", "result": "87.13 pmol oocyte-1 h-1 and 109.05 pmol oocyte-1 h-1 and 57.84 pmol oocyte-1 h-1"}, {"measurement": "PfCRTDd2-mediated PPQ transport 200 µM PPQ", "setting": "25 µM CQ", "result": "75.61 pmol oocyte-1 h-1 and 76.21 pmol oocyte-1 h-1 and 79.18 pmol oocyte-1 h-1"}, {"measurement": "PfCRTDd2-mediated PPQ transport 200 µM PPQ", "setting": "50 µM CQ", "result": "78.47 pmol oocyte-1 h-1 and 73.08 pmol oocyte-1 h-1 and 76.77 pmol oocyte-1 h-1"}, {"measurement": "PfCRTDd2-mediated PPQ transport 200 µM PPQ", "setting": "125 µM CQ", "result": "74.89 pmol oocyte-1 h-1 and 84.24 pmol oocyte-1 h-1 and 63.70 pmol oocyte-1 h-1"}, {"measurement": "PfCRTDd2-mediated PPQ transport 200 µM PPQ", "setting": "200 µM CQ", "result": "63.70 pmol oocyte-1 h-1 and 74.56 pmol oocyte-1 h-1 and 71.51 pmol oocyte-1 h-1"}, {"measurement": "PfCRTDd2-mediated PPQ transport 200 µM PPQ", "setting": "400 µM CQ", "result": "58.65 pmol oocyte-1 h-1 and 62.98 pmol oocyte-1 h-1 and 61.98 pmol oocyte-1 h-1"}, {"measurement": "PfCRTDd2-mediated PPQ transport 300 µM PPQ", "setting": "0 µM CQ", "result": "90.42 pmol oocyte-1 h-1 and 110.91 pmol oocyte-1 h-1 and 77.44 pmol oocyte-1 h-1"}, {"measurement": "PfCRTDd2-mediated PPQ transport 300 µM PPQ", "setting": "25 µM CQ", "result": "75.46 pmol oocyte-1 h-1 and 93.24 pmol oocyte-1 h-1 and 86.36 pmol oocyte-1 h-1"}, {"measurement": "PfCRTDd2-mediated PPQ transport 300 µM PPQ", "setting": "50 µM CQ", "result": "67.98 pmol oocyte-1 h-1 and 93.33 pmol oocyte-1 h-1 and 91.69 pmol oocyte-1 h-1"}, {"measurement": "PfCRTDd2-mediated PPQ transport 300 µM PPQ", "setting": "125 µM CQ", "result": "84.14 pmol oocyte-1 h-1 and 87.90 pmol oocyte-1 h-1 and 73.92 pmol oocyte-1 h-1"}, {"measurement": "PfCRTDd2-mediated PPQ transport 300 µM PPQ", "setting": "200 µM CQ", "result": "93.36 pmol oocyte-1 h-1 and 73.07 pmol oocyte-1 h-1 and 56.74 pmol oocyte-1 h-1 and 73.66 pmol oocyte-1 h-1"}, {"measurement": "PfCRTDd2-mediated PPQ transport 300 µM PPQ", "setting": "400 µM CQ", "result": "91.78 pmol oocyte-1 h-1 and 67.51 pmol oocyte-1 h-1 and 51.42 pmol oocyte-1 h-1"}, {"measurement": "PfCRTDd2-mediated PPQ transport 400 µM PPQ", "setting": "0 µM CQ", "result": "113.37 pmol oocyte-1 h-1 and 109.88 pmol oocyte-1 h-1 and 74.49 pmol oocyte-1 h-1"}, {"measurement": "PfCRTDd2-mediated PPQ transport 400 µM PPQ", "setting": "25 µM CQ", "result": "93.45 pmol oocyte-1 h-1 and 86.08 pmol oocyte-1 h-1 and 106.77 pmol oocyte-1 h-1"}, {"measurement": "PfCRTDd2-mediated PPQ transport 400 µM PPQ", "setting": "50 µM CQ", "result": "86.04 pmol oocyte-1 h-1 and 73.87 pmol oocyte-1 h-1 and 103.05 pmol oocyte-1 h-1"}, {"measurement": "PfCRTDd2-mediated PPQ transport 400 µM PPQ", "setting": "125 µM CQ", "result": "77.98 pmol oocyte-1 h-1 and 81.70 pmol oocyte-1 h-1 and 88.40 pmol oocyte-1 h-1"}, {"measurement": "PfCRTDd2-mediated PPQ transport 400 µM PPQ", "setting": "200 µM CQ", "result": "78.64 pmol oocyte-1 h-1 and 88.68 pmol oocyte-1 h-1 and 77.87 pmol oocyte-1 h-1"}, {"measurement": "PfCRTDd2-mediated PPQ transport 400 µM PPQ", "setting": "400 µM CQ", "result": "83.22 pmol oocyte-1 h-1 and 67.13 pmol oocyte-1 h-1 and 69.51 pmol oocyte-1 h-1"}, {"measurement": "PfCRTDd2-mediated PPQ transport 500 µM PPQ", "setting": "0 µM CQ", "result": "118.94 pmol oocyte-1 h-1 and 82.44 pmol oocyte-1 h-1 and 112.35 pmol oocyte-1 h-1"}, {"measurement": "PfCRTDd2-mediated PPQ transport 500 µM PPQ", "setting": "25 µM CQ", "result": "95.67 pmol oocyte-1 h-1 and 107.56 pmol oocyte-1 h-1 and 100.57 pmol oocyte-1 h-1"}]}]}
